# Measured values from PubChem BioAssay AID1963826 (Molecular Pharmacology Branch, DTP, NCI, 2024).
# Test system: 926638-142-R-J1-PDC complex spheroid viability
# Assay: Anticancer human tumor 926638-142-R-J1-PDC patient-derived endometrial carcinoma cell line growth inhibition [POLQ]
# Conditions: for IC50: curve of first compound; for viability, T/C: stronger effect = lower value
# Outline: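 Patient-derived tumour cells were co-cultured with HUVEC and mesenchymal stem cells as multicellular spheroids at 37 °C. They were treated with POLQ inhibitors (novobiocin, ART-558, RP6685) alone or combined with other agents. Top concentrations were at or near clinical Cmax (otherwise 10 microM; SN-38 at 1 microM), decreasing in half-log steps.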
# [1] = second compound 0.0316 µM, first compound 0.0316 µM
# [2] = second compound 0.0316 µM, first compound 0.1 µM
# [3] = second compound 0.1 µM, first compound 0.0316 µM
# [4] = second compound 0.1 µM, first compound 0.1 µM
# [5] = second compound 0.316 µM, first compound 0.0316 µM
# [6] = second compound 0.316 µM, first compound 0.1 µM
# [7] = second compound 1 µM, first compound 0.0316 µM
# [8] = second compound 1 µM, first compound 0.1 µM
# [9] = second compound 3.16 µM, first compound 0.0316 µM
# [10] = second compound 3.16 µM, first compound 0.1 µM
# [11] = second compound 10 µM, first compound 0.0316 µM
# [12] = second compound 10 µM, first compound 0.1 µM
# 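Also: spheroids exposed to drugs for one week before readout.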
# 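For viability, T/C in this document: percent viability relative to DMSO vehicle control wells set as 100%.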
smiles,measurement,setting,value
CCCS(=O)(=O)Nc1ccc(F)c(C(=O)c2c[nH]c3ncc(-c4ccc(Cl)cc4)cc23)c1F + COC1C(OC(N)=O)C(O)C(Oc2ccc3c(O)c(NC(=O)c4ccc(O)c(CC=C(C)C)c4)c(=O)oc3c2C)OC1(C)C,IC50,second compound 0.0316 µM,8.72 µM
same,IC50,second compound 0.1 µM,9.76 µM
same,IC50,second compound 0.316 µM,9.97 µM
same,IC50,second compound 1 µM,> 10 µM
same,IC50,second compound 3.16 µM,9.78 µM
same,IC50,second compound 10 µM,9.92 µM
same,"viability, T/C",[1],112%
same,"viability, T/C",[2],89.5%
same,"viability, T/C","second compound 0.0316 µM, first compound 0.316 µM",93.1%
same,"viability, T/C","second compound 0.0316 µM, first compound 1 µM",122%
same,"viability, T/C","second compound 0.0316 µM, first compound 3.16 µM",86.4%
same,"viability, T/C","second compound 0.0316 µM, first compound 10 µM",45%
same,"viability, T/C",[3],108%
same,"viability, T/C",[4],105%
same,"viability, T/C","second compound 0.1 µM, first compound 0.316 µM",83.3%
same,"viability, T/C","second compound 0.1 µM, first compound 1 µM",112%
same,"viability, T/C","second compound 0.1 µM, first compound 3.16 µM",91.3%
same,"viability, T/C","second compound 0.1 µM, first compound 10 µM",49.1%
same,"viability, T/C",[5],110%
same,"viability, T/C",[6],114%
same,"viability, T/C","second compound 0.316 µM, first compound 0.316 µM",118%
same,"viability, T/C","second compound 0.316 µM, first compound 1 µM",116%
same,"viability, T/C","second compound 0.316 µM, first compound 3.16 µM",105%
same,"viability, T/C","second compound 0.316 µM, first compound 10 µM",49.6%
same,"viability, T/C",[7],84%
same,"viability, T/C",[8],95.7%
same,"viability, T/C","second compound 1 µM, first compound 0.316 µM",104%
same,"viability, T/C","second compound 1 µM, first compound 1 µM",101%
same,"viability, T/C","second compound 1 µM, first compound 3.16 µM",98.8%
same,"viability, T/C","second compound 1 µM, first compound 10 µM",52.2%
same,"viability, T/C",[9],89.7%
same,"viability, T/C",[10],92.3%
same,"viability, T/C","second compound 3.16 µM, first compound 0.316 µM",89.2%
same,"viability, T/C","second compound 3.16 µM, first compound 1 µM",95.2%
same,"viability, T/C","second compound 3.16 µM, first compound 3.16 µM",95.5%
same,"viability, T/C","second compound 3.16 µM, first compound 10 µM",49.2%
same,"viability, T/C",[11],81.9%
same,"viability, T/C",[12],93.7%
same,"viability, T/C","second compound 10 µM, first compound 0.316 µM",90%
same,"viability, T/C","second compound 10 µM, first compound 1 µM",84%
same,"viability, T/C","second compound 10 µM, first compound 3.16 µM",83.7%
same,"viability, T/C","second compound 10 µM, first compound 10 µM",49.5%
Cn1ncnc1[C@H]1c2n[nH]c(=O)c3cc(F)cc(c23)N[C@@H]1c1ccc(F)cc1 + COC1C(OC(N)=O)C(O)C(Oc2ccc3c(O)c(NC(=O)c4ccc(O)c(CC=C(C)C)c4)c(=O)oc3c2C)OC1(C)C,IC50,second compound 0.0316 µM,> 0.1 µM
same,IC50,second compound 0.1 µM,> 0.1 µM
same,IC50,second compound 0.316 µM,> 0.1 µM
same,IC50,second compound 1 µM,> 0.1 µM
same,IC50,second compound 3.16 µM,> 0.1 µM
same,IC50,second compound 10 µM,> 0.1 µM
same,"viability, T/C","second compound 0.0316 µM, first compound 0.000316 µM",84.5%
same,"viability, T/C","second compound 0.0316 µM, first compound 0.001 µM",83.7%
same,"viability, T/C","second compound 0.0316 µM, first compound 0.00316 µM",81.7%
same,"viability, T/C","second compound 0.0316 µM, first compound 0.01 µM",86.5%
same,"viability, T/C",[1],71.5%
same,"viability, T/C",[2],79.5%
same,"viability, T/C","second compound 0.1 µM, first compound 0.000316 µM",106%
same,"viability, T/C","second compound 0.1 µM, first compound 0.001 µM",96.4%
same,"viability, T/C","second compound 0.1 µM, first compound 0.00316 µM",86%
same,"viability, T/C","second compound 0.1 µM, first compound 0.01 µM",90.5%
same,"viability, T/C",[3],76.3%
same,"viability, T/C",[4],69.5%
same,"viability, T/C","second compound 0.316 µM, first compound 0.000316 µM",117%
same,"viability, T/C","second compound 0.316 µM, first compound 0.001 µM",86.4%
same,"viability, T/C","second compound 0.316 µM, first compound 0.00316 µM",72.7%
same,"viability, T/C","second compound 0.316 µM, first compound 0.01 µM",78.5%
same,"viability, T/C",[5],69.7%
same,"viability, T/C",[6],60.3%
same,"viability, T/C","second compound 1 µM, first compound 0.000316 µM",85.5%
same,"viability, T/C","second compound 1 µM, first compound 0.001 µM",94.1%
same,"viability, T/C","second compound 1 µM, first compound 0.00316 µM",92.3%
same,"viability, T/C","second compound 1 µM, first compound 0.01 µM",60.1%
same,"viability, T/C",[7],78.6%
same,"viability, T/C",[8],76.7%
same,"viability, T/C","second compound 3.16 µM, first compound 0.000316 µM",68.5%
same,"viability, T/C","second compound 3.16 µM, first compound 0.001 µM",81.7%
same,"viability, T/C","second compound 3.16 µM, first compound 0.00316 µM",74.3%
same,"viability, T/C","second compound 3.16 µM, first compound 0.01 µM",81.7%
same,"viability, T/C",[9],78.5%
same,"viability, T/C",[10],69.6%
same,"viability, T/C","second compound 10 µM, first compound 0.000316 µM",84.8%
same,"viability, T/C","second compound 10 µM, first compound 0.001 µM",90.2%
same,"viability, T/C","second compound 10 µM, first compound 0.00316 µM",77.6%
same,"viability, T/C","second compound 10 µM, first compound 0.01 µM",81%
same,"viability, T/C",[11],82.4%
same,"viability, T/C",[12],76.6%
